Test results reported in patent US12458641B2, “NK-3 receptor antagonists for therapeutic or cosmetic treatment of excess body fat” (Ogeda SA, priority 2015, dated 2025).
Values joined by “and” are separate entries in the source; they are usually repeats but may differ in a detail not shown here. Equal values may be shown once.

Experiments:
[1] = rats fed standard chow or high-fat diet (Li et al., 2014); cited from earlier work
[2] = 13-week oral dosing in cynomolgus monkeys: whole-body DEXA scan (lean mass, bone mineral density, bone mineral content, fat mass); format: in vivo, cynomolgus monkeys (Macaca fascicularis)
Protocol: (§1) Sexually-mature (age range of ˜4 years at pre-dose), purpose-bred cynomolgus monkeys (Macaca fascicularis) of Asian origin were used. Sexual maturity was proven by recording of at least two menstrual bleedings (with 20-to-50 days between menstruations) prior to entry into the study.
(§2) NHPs were divided into three treatment groups: vehicle control (N=6) and compound k-5 Dose Groups of 10 mg/kg (N=4) and 50 mg/kg (N=6), respectively. All NHPs were dosed once daily (morning) by oral gavage over the 13 week treatment period of the study. The dose vehicle was 0.5% methylcellulose (Methocel® from Colorcon) in water.
All NHPs were subjected to a body weight measurement and DEXA scan (Dual-energy X-ray absorptiometry, Hologic Dexa QDR® 4000) in the pre-dose phase and in the final week (week-13) of the dosing phase. The measurements were made under ketamine anesthesia with dorbene and antisedan.
The whole body was scanned by DEXA for measurement of lean mass, bone mineral density, bone mineral content and fat mass.

[3] = Body weight and BMI in overweight women; format: in vivo, human; details: 180 mg for 21 consecutive days, individual subjects
Protocol: Overweight women, i.e. having a BMI ranging from 25 to 30 kg/m^2, received 180 mg of compound k-5 for 21 consecutive days.
(§3) The weight was measured at screening which took place between 28 and 2 days before start of dosing (D-28 to D-2), as well as on the follow-up visit planned on D42 (21 days after cessation of study compound intake).

[4] = 13-week once-daily oral dosing in cynomolgus monkeys: body weight; format: in vivo, cynomolgus monkeys (Macaca fascicularis); details: female monkeys, 13 weeks, 50 mg/kg (FIG. 3), vehicle group gained about 12%
Source text: The cynomolgus monkey was selected as a relevant species because of the similarity of nonhuman primates (NHP) to humans. The route of administration is oral consistent with the intended route in humans.
as §1
NHPs were maintained on a standard lab diet of twice-daily offerings of commercial pellets for primates supplemented with fresh fruit and bread. Dietary and environmental enrichment were also provided through the study duration. Animals were housed in a climate (19-25° C.) and humidity (40-70%) controlled environment with artificial lighting controlled automatically to give a cycle of 12 hours light and 12 hours dark.
as §2, with “water. […]” for “water.”

[5] = system: leptin; test: Plasma leptin level in women (placebo-controlled, ELISA); format: in vivo, human; details: non-obese premenopausal women; 20, 60 and 180 mg once daily, all dose levels; p<0.05 paired t-test (FIG. 4)
Source text: This was a randomized, double-blind, placebo-controlled study. All subjects provided written informed consent prior to screening for study eligibility. Healthy female volunteers aged 20-45 years with a body mass index of 19-30 kg/m^2 were included. Participants needed to be in good physical health including the presence of a regular ovulatory menstrual cycle and the discontinuation of all hormonal contraceptive methods at least 3 months prior to screening. Three panels of 8 non-obese female volunteers (median BMI of each panel: 22.3, 23.4, 25.2 kg/m^2) each were administered capsules of compound k-5 or matching placebo in a 6:2 ratio for 21 days. Subjects received the study medication in a once daily regimen after a light standardized breakfast. The participants in these panels were synchronized for their menstrual cycle; i.e. the initiation of dosing was always on Day3±2 of the menstrual cycle. The dose levels investigated were 20, 60 and 180 mg of compound k-5. Blood samples were collected on the day prior to dosing as well as on Day 21 (the final day of dosing) and plasma fractions were retained and stored frozen (−20° C.) until analysis. Leptin concentrations in these plasma samples were determined by ELISA assay (Human Leptin Kit: R&D Systems, Cat. N° DLP00) based upon linear regression analysis against a standard curve.

[6] = system: leptin; test: Plasma leptin level in female rats over the estrous cycle (ELISA, AUC); format: in vivo; details: 10 mg/kg oral BID, p<0.05 paired t-test (FIG. 5)
Protocol: Daily plasma samples were collected each morning from sexually-mature female rats and analyzed for peak estrogen levels (coincident with proestrus) in order to define the timing of the estrous cycle for individual rats. Next, rats were dosed orally BID (i.e. twice a day) with vehicle (0.5% methylcellulose) over a 4-day ‘baseline’ estrous cycle. Plasma samples were collected daily, each morning, and stored frozen prior to analysis for leptin. […] Plasma samples were collected daily, each morning, and stored frozen prior to analysis for leptin. In a single experiment, plasma samples collected daily during both the ‘baseline’ and ‘treatment’ cycles were analyzed in a common experiment by ELISA assay based upon linear regression analysis against a standard curve. Leptin levels over the 4-day estrous cycle were calculated for individual rats by determination of AUC (area-under-the-curve) using credited data analysis software (GraphPad Prism).

[7] = Body weight and BMI in healthy women with normal corpulence; format: in vivo, human; details: 60 mg for 21 consecutive days, individual subjects
Protocol: Healthy women with normal corpulence, i.e. having a BMI ranging from 18.5 to 25 kg/m^2, received 60 mg of compound k-5 for 21 consecutive days.
as §3

[8] = Multiple ascending dose administration in healthy women: body weight; format: in vivo, human; details: for Weight D 42 / Weight Screening: group mean; for Weight D 42: 21 days after last dose; for Weight Screening: before dosing (D-28 to D-2); for Pre vs Post Difference / Pre vs Post Difference (%): screening vs D42
Protocol: Three Panels A, B, and C, each consisting of 6 healthy women, were randomized to receive different dose level of compound k-5. In those 3 panels, compound k-5 is administered for 21 consecutive days.
Subjects were residential from the day before first dosing (D-1) until Day 24 (=72 hours after the last dose intake on Day 21). Weekly non-residential visits were organized on Day 28, Day 35 (±1 day) and a follow-up visit on Day 42 (±2 days). Ascending multiple doses of compound k-5 were administered in a once-daily regimen for 21 consecutive days. […] Subjects received the trial medication in a q.d. regimen and after a light breakfast.
Subjects were recruited on the basis of their medical history and health status. Especially, subjects meeting all of the following criteria were eligible to participate in this study: • 1) Premenopausal females between 18 and 45 years of age inclusive. • 2) Healthy with no clinically significant abnormalities as determined by medical history, physical examination, blood chemistry assessments, hematologic assessments, coagulation and urinalysis, measurement of vital signs, and ECG. Isolated out-of-range values judged by the physician to be of no clinical significance were allowed. […] Weight Measurement
The weight was measured at screening, which took place between 28 and 2 days before start of dosing (D-28 to D-2), and at the end-of-study visit (D42, i.e. 21 days after cessation of study compound intake).
A two-tailed T-test for paired samples was used to explore the difference between the screening and post-study values for weight.

[9] = system: leptin; test: 13-week oral dosing in cynomolgus monkeys: serum leptin by ELISA; format: in vivo, cynomolgus monkeys (Macaca fascicularis)
Protocol: as §2
All NHPs were subjected to leptin levels measurements. Blood samples were collected at 08 h00 in the morning from overnight-fasted animals on Day-2 prior to dosing (‘pre-dose’), 24 h after the initial dosing, on day 52 of dosing and on day 86 of dosing. Serum samples were derived from these blood samples and stored frozen (−20° C.) until analysis. Leptin concentrations in these serum samples were determined by ELISA assay (Monkey Kit: MyBiosource Cat. N° MBS705354) based upon linear regression analysis against a standard curve.

Compound: CC[C@H](NC(=O)c1c(C)c(-c2ccccc2)nc2ccccc12)c1ccccc1 [SB222200, 3-Methyl-2-phenyl-N-[(1S)-1-phenylpropyl]-4-quinolinecarboxamide]
- effect on weight [1]: no effect on weight was observed

Compound: Cc1nsc(-c2nnc3n2CCN(C(=O)c2ccc(F)cc2)[C@@H]3C)n1 [k-5, (R)-(4-fluorophenyl)(8-methyl-3-(3-methyl-1,2,4-thiadiazol-5-yl)-5,6-dihydro-[1,2,4]triazolo[4,3-a]pyrazin-7(8H)-yl)methanone]
- % fat/total mass, treated versus vehicle-treated group ([2]; 50 mg/kg, week 13, N=6/group): statistically-significant difference
- change in % fat/total mass over the 13-week treatment period (DEXA) ([2]; 10 and 50 mg/kg dose groups, pre-dose vs week 13, increased in the vehicle group (FIG. 1)): no significant change
- BMI D 42 ([3]; D42): 26.79 and 26.17 and 26.21
- BMI screening ([3]; before dosing): 27.94 and 27.81 and 27.15
- Difference ([3]; screening vs D42): -2.8 kg and -4.2 kg and -3 kg
- Difference (%) ([3]; screening vs D42): −4.29% and −6.27% and −3.57%
- Weight Screening ([3]; overweight women BMI 25 to 30 kg/m^2, before dosing): 68 kg and 71.2 kg and 87 kg
- Weight D 42 ([3]; overweight women, D42): 65.2 kg and 67 kg and 84 kg
- change in mean weight over the course of the dosing phase [4]: no significant change
- leptin levels following 21 days of treatment relative to pre-dose levels [5]: increases serum leptin levels
- plasma leptin levels over the 4-day estrous cycle (AUC) versus baseline cycle [6]: increases plasma leptin levels
- BMI D 42 ([7]; D42): 21.45 and 22.95 and 21.39
- BMI screening ([7]; before dosing): 22.18 and 23.71 and 21.55
- Difference ([7]; screening vs D42): -2.2 kg and -2 kg and -0.5 kg
- Difference (%) ([7]; screening vs D42): −3.43% and −3.28% and −0.74%
- Weight D 42 ([7]; women BMI 18.5 to 25 kg/m^2, D42): 64.2 kg and 61 kg and 67.8 kg
- Weight Screening ([7]; women BMI 18.5 to 25 kg/m^2, before dosing): 66.4 kg and 63 kg and 68.3 kg
- Weight D 42 ([8]; 20 mg once daily for 21 days): 58.0 kg
- Weight Screening ([8]; 20 mg once daily for 21 days): 58.2 kg
- Pre vs Post Difference ([8]; 20 mg once daily for 21 days): -0.13 kg
- Pre vs Post Difference (%) ([8]; 20 mg once daily for 21 days): −0.23%
- Weight D 42 ([8]; 60 mg once daily for 21 days): 71.9 kg
- Weight Screening ([8]; 60 mg once daily for 21 days): 73.3 kg
- Pre vs Post Difference ([8]; 60 mg once daily for 21 days): -1.38 kg
- Pre vs Post Difference (%) ([8]; 60 mg once daily for 21 days): −1.92%
- Weight D 42 ([8]; 180 mg once daily for 21 days): 66.9 kg
- Weight Screening ([8]; 180 mg once daily for 21 days): 69.0 kg
- Pre vs Post Difference ([8]; 180 mg once daily for 21 days): -2.10 kg
- Pre vs Post Difference (%) ([8]; 180 mg once daily for 21 days): −3.14%
- weight lowering with increasing doses ([8]; 20, 60, 180 mg once daily for 21 days, healthy women): dose-dependent trend exists towards weight lowering
- serum leptin levels 24-hours after initial dosing ([9]; 50 mg/kg oral (FIG. 2), relative to pre-dose and to time-matched vehicle group): significantly increases
- serum leptin levels over the duration of dosing relative to vehicle-treated group ([9]; 50 mg/kg oral once daily, up to day 86 (FIG. 2)): persistently higher
